Test results taken from patent US20240294478A1, “ANTI-CANCER COMPOUNDS AND METHODS OF USE” (YALE UNIVERSITY, priority 2021, published 2024).
Like-named read-outs stand apart in the source and are kept apart here.

Key:
[1] = test system: LN229 MGMT+/−, MMR+/− cells; assay: Cell cycle analysis; type: cell-based, human; details: 20 μM
Experimental: FIGS. 6A-6E: Selected cell cycle analysis upon drug treatment. FIG. 6A: Percentage of cells in G1, S, and G2 cell cycle phases after treatment, as in FIGS. 5A-5C, measured using integrated nuclear (Hoechst) staining intensity. Columns, mean; error bars, SD; n=3 independent analyses.
Cell Cycle Analysis. Cell cycle analysis was performed using integrated Hoechst nucleic acid dye fluorescence intensity. Briefly, integrated Hoechst fluorescence intensity was log 2 transformed and histograms from DMSO-treated cells were used to identify the centers of the 2N and 4N DNA peaks. These values were used to normalize the 2N DNA peak to 1 and the 4N DNA peak to 2. Cells were then classified by normalized log 2 DNA content as G1 (0.75-1.25), S (1.25-1.75), or G2 (1.75-2.5) phase cells. The percentage of cells within each phase of the cell cycle was determined for each treatment condition. The three sets of Hoechst-stained cells corresponding to the three separate DNA foci stains were treated as three independent analyses.

[2] = test system: ATR-CHK1 and ATM-CHK2 signaling axes in LN229 MGMT+/−, MMR+/− cells; assay: Western blotting of CHK1 and CHK2 phosphorylation; type: cell-based, human; details: 20 μM, 24 or 48 h
Experimental: FIGS. 5A-5K: KL-50 activates DNA damage response pathways and cycle arrest in MGMT-cells, independent of MMR, and induces sensitivity in cells deficient in ICL or HR repair. […] Columns, mean; error bars, SD; n 5 technical replicates. FIGS. 5D-5K: KL-50 induces activation of the ATR-CHK1 and ATM-CHK2 signaling axes and delayed DNA repair foci formation in MGMT-deficient cells, independent of MMR status. […] Treatment with 1 μM doxorubicin for 24 h (Doxo) served as a positive control for p-CHK1 activation. […] Points, mean % cells with >10 foci; error bars, SD; n >5 technical replicates. […] Points, % cells with 10 foci, n>250 cells per condition.
A prior finding that the ATR-CHK1 signaling axis is activated in response to TMZ-induced replication stress in MGMT-deficient cells prompted analysis of the phosphorylation status of CHK1 and CHK2 in LN229 MGMT+/− and MMR+/−cells. […] Analysis of foci formation of the DDR factors phospho-SER139-H2AX (yH2AX), p53 binding protein 1 (53BP1), and phospho-SER33-RPA2 (pRPA) over the period of 2 to 48 h (FIGS. 5A-5C and FIGS. 5D-5I). […] However, these foci dissipate at later timepoints (72-96 h; FIGS. 5J-5K), and they are not associated with appreciable cellular toxicity (as shown earlier in FIGS. 2A and 2B).

LN229 MGMT+/MMR− cells = assay: Short-term cell viability assay, LN229 MGMT+/MMR- (shRNA targeting MSH2); type: cell-based; details: Homo sapiens
Experimental: LN229 MGMT- and MGMT+ cell lines were a gift from B. Kaina (Johannes Gutenberg University Mainz, Mainz, Germany) and grown in Gibco® Duilbecco's Modified Eagle Medium with 10% fetal bovine serum (DMEM). For each compound tested, the relationship between MGMT status and MMR status and compound activity, in terms of IC50 values ([…]), was determined by the following method. On day 1, LN229 isogenic cells of varying MGMT and MMR status were seeded in 96 well format at a density of 2000 cells/well in 100 μL of DMEM media and allowed to adhere overnight. On day 2, a drug master plate was made with 100×the desired maximal concentration of test compound and serially diluted by 2 until 100×the minimal desired concentration, with one DMSO control. Then daughter plates were created with varied concentrations from 3-times the minimal concentration to 3-times the maximal desired concentration. Afterwards, 50 μL of daughter drug plate was added to 100 μL of the seeded cells for a final concentration of 1×in triplicate. Cells were allowed to grow for 6 days. On day 7, the cells were fixed, and stained with Hoechst nuclear dye and imaged to determine growth inhibition.
For each compound tested, the relationship between MGMT status and MMR status and compound activity, in terms of IC50 values (in μM), was determined. In addition, for each compound, the therapeutic index (TI) was calculated, according to the equation MGMT TI=IC50 (MGMT+/MMR+) divided by IC50 (MGMT−/MMR+). The T1 indicates the efficacy of a compound in treating the targeted MGMT-cancer cells as compared to potential for the same compound to damage, or have adverse effects against, normal cells which are MGMT+cells, The higher the value of the TI, the safer the compound is. […] MMR RI (resistance index)=IC50 (MGMT−/MMR−) divided by IC50 (MGMT−/MMR+). The higher the value of the RI, the less likely that resistance to the compound will develop.
Short-term Cell Viability Assay. Cells were seeded in 96-well plates at 1000 or 2000 cells/well and allowed to adhere at 23° C. for 60 min and then incubated overnight at 37° C. Cells were treated with indicated concentrations of compounds in triplicate for 4-6 days prior to fixation with 3.7% paraformaldehyde and nuclear staining with 1 μg/mL Hoechst 33342 dye. Cells were imaged on a Cytation 3 imaging reader (BioTek) and quantified using CellProfiler software. For in vitro short-term growth delay experiments, IC50 values were determined from the nonlinear regression equation, [inhibitor] vs normalized response with variable slope.

[3] = test system: genomic DNA isolated from LN229 MGMT−/MMR+ cells; assay: Genomic DNA denaturing gel electrophoresis; type: cell-based, human; details: KL-50 200 μM
Experimental: Genomic DNA Denaturing Gel Electrophoresis. Cells were trypsinized, washed with 1×PBS, and stored at −80° C. prior to processing. Genomic DNA was extracted with the DNeasy Blood & Tissue Kit (Qiagen) per kit protocol. A 0.7% agarose gel was prepared in 100 mM NaCl-2 mM EDTA (pH 8) and soaked in 40 mM NaOH-1 mM EDTA running buffer for 2 h. Genomic DNA (400 ng/well) was then loaded in 1×BlueJuice loading buffer (Invitrogen) and subjected to electrophoresis at 2 V/cm for 30 min, followed by 3 V/cm for 2 h. The gel was neutralized in 150 mM NaCl-100 mM Tris (pH 7.4) for 30 min, twice, and then stained with 1×SYBR Gold in 150 mM NaCl-100 mM Tris (pH 7.4) for 90 min. Imaging was performed on a ChemiDoc XRS+ Molecular Imager (Bio-Rad).

[4] = LN-229, Table II, read-out: IC50 against LN229 cell lines, MGMT MMR−

SMILES	G2 arrest in MGMT+/MMR+ cells [1]	G2 arrest in MGMT−/MMR− cells [1]	G2 arrest in MGMT−/MMR+ cells ([1]; 24 to 48 h)	CHK1 and CHK2 phosphorylation [2]	IC50 (LN229 MGMT+/MMR− cells; [4]) [µM]	crosslinked genomic DNA (ICL induction) [3]	IC50 (LN229 MGMT+/MMR− cells; LN-229, 144 h, Table 1, 6 days growth, read-out: IC50 against LN229 cell lines, MGMT+ MMR−) [µM]
NC(=O)c1ncn2c(=O)n(CCF)nnc12 [KL-50]	moderate G2 arrest	attenuated G2 arrest	increasing G2 arrest	induced CHK1 and CHK2 phosphorylation in MGMT-cells regardless of MMR status	504 ± 55	presence of crosslinked DNA	–
Cn1nnc2c(C(N)=O)ncn2c1=O [TMZ, 4-methyl-5-oxo-2,3,4,6,8-pentazabicyclo[4.3.0]nona-2,7,9-triene-9-carboxamide, reference compound]	moderate G2 arrest	absent	–	only induced phospho-CHK1 and —CHK2 in MGMT−/MMR+cells	1000 ± 107	no evidence of ICL induction	> 100
